# Patent publication US10781181B2, “N-((het) arylmethyl)-heteroaryl-carboxamides compounds as plasma kallikrein inhibitors” (Kalvista Pharmaceuticals Limited, priority 2014, dated 2020)
# Tests used:
# Assay type in all cases: biochemical
# [1] = biological target: Human FXIa (Homo sapiens (Human), UniProt P03951); assay: Determination of the % inhibition for FXIa; details: 40 μM of the test compound, human FXIa, 25° C.; read-out: % Inhibition @ 40 μM (human FXIa)
# Description: Determination of the % Inhibition for FXIa
# Human FXIa (Enzyme Research Laboratories) was incubated at 25° C. with the fluorogenic substrate Z-Gly-Pro-Arg-AFC and 40 μM of the test compound. Residual enzyme activity (initial rate of reaction) was determined by measuring the change in […].
# [2] = biological target: Human KLK1 (Homo sapiens (Human), UniProt P06870); assay: Determination of the IC50 for KLK1; details: human KLK1, 25° C., substrate H-DVal-Leu-Arg-AFC
# Human KLK1, sequence (P06870 25-262): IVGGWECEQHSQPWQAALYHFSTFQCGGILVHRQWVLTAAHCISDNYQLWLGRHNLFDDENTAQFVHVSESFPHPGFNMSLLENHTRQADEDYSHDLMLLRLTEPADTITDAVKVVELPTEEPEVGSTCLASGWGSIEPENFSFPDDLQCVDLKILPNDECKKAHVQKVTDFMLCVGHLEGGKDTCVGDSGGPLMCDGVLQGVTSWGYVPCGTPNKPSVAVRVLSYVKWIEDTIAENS
# Description: Determination of the IC50 for KLK1
# (§1) Human KLK1 (Callbiochem) was incubated at 25° C. with the fluorogenic substrate H-DVal-Leu-Arg-AFC and various concentrations of the test compound. Residual enzyme activity (initial rate of reaction) was determined by measuring the change in […] at 410 nm and the IC50 value for the test compound was determined.
# [3] = biological target: Human plasma kallikrein (Homo sapiens (Human), UniProt P03952); assay: Determination of the IC50 for plasma kallikrein; details: read-out: IC50 (human PKal)
# Human plasma kallikrein, sequence (P03952 391-638): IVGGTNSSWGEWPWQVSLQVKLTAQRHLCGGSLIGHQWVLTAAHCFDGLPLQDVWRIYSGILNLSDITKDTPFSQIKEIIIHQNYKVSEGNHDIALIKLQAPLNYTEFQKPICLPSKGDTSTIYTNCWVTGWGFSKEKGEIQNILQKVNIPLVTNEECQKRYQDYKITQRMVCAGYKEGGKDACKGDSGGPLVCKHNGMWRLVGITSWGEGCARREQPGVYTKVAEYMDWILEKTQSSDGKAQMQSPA
# Human plasma kallikrein, sequence (P03952 20-390 partner): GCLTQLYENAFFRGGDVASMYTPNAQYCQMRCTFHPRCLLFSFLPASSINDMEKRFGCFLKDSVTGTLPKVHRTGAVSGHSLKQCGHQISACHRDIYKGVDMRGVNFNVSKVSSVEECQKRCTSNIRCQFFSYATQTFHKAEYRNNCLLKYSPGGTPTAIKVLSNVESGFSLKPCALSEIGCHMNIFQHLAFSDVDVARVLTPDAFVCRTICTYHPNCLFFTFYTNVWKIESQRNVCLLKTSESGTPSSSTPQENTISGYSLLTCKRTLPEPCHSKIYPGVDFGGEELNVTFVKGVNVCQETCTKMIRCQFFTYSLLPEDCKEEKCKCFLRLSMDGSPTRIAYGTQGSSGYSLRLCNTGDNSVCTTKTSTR
# Description: Determination of the IC50 for Plasma Kallikrein
# as §1, with “plasma kallikrein (Protogen)” for “KLK1 (Callbiochem)”, “H-DPro-Phe-Arg-AFC” for “H-DVal-Leu-Arg-AFC”
# Human FXIa, sequence (P03951 388-625 limits assumed): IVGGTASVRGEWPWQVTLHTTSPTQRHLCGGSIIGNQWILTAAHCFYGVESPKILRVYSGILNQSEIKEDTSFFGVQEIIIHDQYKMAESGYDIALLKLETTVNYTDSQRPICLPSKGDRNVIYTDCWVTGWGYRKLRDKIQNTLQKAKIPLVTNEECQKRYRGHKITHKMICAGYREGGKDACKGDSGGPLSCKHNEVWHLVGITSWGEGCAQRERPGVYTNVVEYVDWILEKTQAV
# Human FXIa, sequence (P03951 19-387 partner limits assumed): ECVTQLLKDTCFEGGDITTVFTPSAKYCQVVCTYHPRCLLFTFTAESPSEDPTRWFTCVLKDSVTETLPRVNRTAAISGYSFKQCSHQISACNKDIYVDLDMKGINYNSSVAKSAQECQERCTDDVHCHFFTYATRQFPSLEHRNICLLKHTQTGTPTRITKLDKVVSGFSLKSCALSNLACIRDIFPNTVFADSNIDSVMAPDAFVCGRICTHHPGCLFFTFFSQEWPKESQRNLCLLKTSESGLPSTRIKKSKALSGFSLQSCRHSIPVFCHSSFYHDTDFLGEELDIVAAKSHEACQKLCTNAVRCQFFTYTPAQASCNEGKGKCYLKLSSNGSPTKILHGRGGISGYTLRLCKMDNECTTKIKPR
inhibition at 40 µM [1] [%],IC50 [2] [µM],IC50 [3] [nM],Structure (SMILES)
33,> 40,3350,"Cc1cnn(-c2ccc(Cn3cc(C(=O)NCCOc4cccc(Cl)c4)c(N)n3)cn2)c1 [Example 89, 3-amino-N-[2-(3-chlorophenoxy)ethyl]-1-{[6-(4-methylpyrazol-1-yl)pyridin-3-yl]methyl}pyrazole-4-carboxamide]"
0,> 40,12.6,"CN(C(=O)CNC(=O)c1cn(Cc2ccc(Cn3ccccc3=O)cc2)nc1N)c1cccc(Cl)c1 [Example 40, 2-{[3-amino-1-({4-[(2-oxopyridin-1-yl)methyl]phenyl}methyl)pyrazol-4-yl]formamido}-N-(3-chlorophenyl)-N-methylacetamide]"
0,> 40,335,"Nc1nn(Cc2ccc(-n3ccccc3=O)cc2)cc1C(=O)NCCOc1cccc(Cl)c1 [Example 52, 3-amino-N-[2-(3-chlorophenoxy)ethyl]-1-{[4-(2-oxopyridin-1-yl)phenyl]methyl}pyrazole-4-carboxamide]"
0,> 10,191,"COCc1nn(Cc2ccc(Cn3ccccc3=O)cc2)cc1C(=O)NCCOc1cc(Cl)ccc1F [Example 9, N-[2-(5-chloro-2-fluorophenoxy)ethyl]-3-(methoxymethyl)-1-({4-[(2-oxopyridin-1-yl)methyl]phenyl}methyl)pyrazole-4-carboxamide]"
0,> 10,134,"COCc1nn(Cc2ccc(Cn3ccccc3=O)cc2)cc1C(=O)NCCOc1cc(F)cc(Cl)c1 [Example 10, N-[2-(3-chloro-5-fluorophenoxy)ethyl]-3-(methoxymethyl)-1-({4-[(2-oxopyridin-1-yl)methyl]phenyl}methyl)pyrazole-4-carboxamide]"
0,> 10,2390,"O=C(NCCOc1cccc(Cl)c1)c1cn(Cc2ccc(N3CCCC3)nc2)nc1C(F)(F)F [Example 28, N-[2-(3-chlorophenoxy)ethyl]-1-{[6-(pyrrolidin-1-yl)pyridin-3-yl]methyl}-3-(trifluoromethyl)pyrazole-4-carboxamide]"
4,> 40,7150,"CCOC(=O)c1cccc(Cn2cc(C(=O)NCCOc3cccc(Cl)c3)c(N)n2)c1 [Example 62, ethyl 3-[(3-amino-4-{[2-(3-chlorophenoxy)ethyl]carbamoyl}pyrazol-1-yl)methyl]benzoate]"
29,> 40,114,"Cc1cc(Cl)cc(OCCNC(=O)c2cn(Cc3ccc(Cn4ccccc4=O)cc3)nc2N)c1 [Example 33, 3-amino-N-[2-(3-chloro-5-methylphenoxy)ethyl]-1-({4-[(2-oxopyridin-1-yl)methyl]phenyl}methyl)pyrazole-4-carboxamide]"
0,> 40,112,"Nc1nn(Cc2ccc(CN3CCCCC3=O)cc2)cc1C(=O)NCCOc1cccc(Cl)c1 [Example 77, 3-amino-N-[2-(3-chlorophenoxy)ethyl]-1-({4-[(2-oxopiperidin-1-yl)methyl]phenyl}methyl)pyrazole-4-carboxamide]"
6,> 40,> 10000,"Nc1nn(Cc2cccc(C(=O)N3CCCC3)c2)cc1C(=O)NCCOc1cccc(Cl)c1 [Example 70, 3-amino-N-[2-(3-chlorophenoxy)ethyl]-1-({3-[(pyrrolidin-1-yl)carbonyl]phenyl}methyl)pyrazole-4-carboxamide]"
0,> 40,4730,"Nc1nn(Cc2cccc(N3CCCC3)n2)cc1C(=O)NCCOc1cccc(Cl)c1 [Example 53, 3-amino-N-[2-(3-chlorophenoxy)ethyl]-1-{[6-(pyrrolidin-1-yl)pyridin-2-yl]methyl}pyrazole-4-carboxamide]"
0,> 40,227,"Nc1nn(Cc2ccc(CN3CCOCC3=O)cc2)cc1C(=O)NCCOc1cccc(Cl)c1 [Example 76, 3-amino-N-[2-(3-chlorophenoxy)ethyl]-1-({4-[(3-oxomorpholin-4-yl)methyl]phenyl}methyl)pyrazole-4-carboxamide]"
0,> 40,> 10000,"COc1cc(Cn2cc(C(=O)NCCOc3cccc(Cl)c3)c(N)n2)ccn1 [Example 73, 3-amino-N-[2-(3-chlorophenoxy)ethyl]-1-[(2-methoxypyridin-4-yl)methyl]pyrazole-4-carboxamide]"
0,> 40,6330,"Nc1nn(Cc2nc(-c3ccccc3)no2)cc1C(=O)NCCOc1cccc(Cl)c1 [Example 80, 3-amino-N-[2-(3-chlorophenoxy)ethyl]-1-[(3-phenyl-1,2,4-oxadiazol-5-yl)methyl]pyrazole-4-carboxamide]"
7,> 40,92.8,"Nc1nn(Cc2ccc(Cn3ccccc3=O)cc2)cc1C(=O)NCCOc1cc(Cl)ccc1Cl [Example 34, 3-amino-N-[2-(2,5-dichlorophenoxy)ethyl]-1-({4-[(2-oxopyridin-1-yl)methyl]phenyl}methyl)pyrazole-4-carboxamide]"
56,> 40,2790,"Nc1nn(Cc2ccc(Cn3ccccc3=O)cc2)cc1C(=O)NCCCn1cc(Cl)cn1 [Example 21, 3-amino-N-[3-(4-chloropyrazol-1-yl)propyl]-1-({4-[(2-oxopyridin-1-yl)methyl]phenyl}methyl)pyrazole-4-carboxamide]"
26,> 40,5940,"Nc1nn(Cc2cccc(-c3ccccc3)n2)cc1C(=O)NCCOc1cccc(Cl)c1 [Example 72, 3-amino-N-[2-(3-chlorophenoxy)ethyl]-1-[(6-phenylpyridin-2-yl)methyl]pyrazole-4-carboxamide]"
0,> 40,710,"CC(=O)N(C)Cc1ccc(Cn2cc(C(=O)NCCOc3cccc(Cl)c3)c(N)n2)cc1 [Example 82, 3-amino-N-[2-(3-chlorophenoxy)ethyl]-1-({4-[(N-methylacetamido)methyl]phenyl}methyl)pyrazole-4-carboxamide]"
13,> 40,4,"Nc1nn(Cc2ccc(Cn3ccccc3=O)cc2)cc1C(=O)N[C@@H]1CCN(c2cccc(Cl)c2)C1=O [Example 110, 3-amino-N-[(3R)-1-(3-chlorophenyl)-2-oxopyrrolidin-3-yl]-1-({4-[(2-oxopyridin-1-yl)methyl]phenyl}methyl)pyrazole-4-carboxamide]"
9,> 40,5870,"Nc1nn(Cc2ccc(-c3ncccn3)cc2)cc1C(=O)NCCOc1cccc(Cl)c1 [Example 79, 3-amino-N-[2-(3-chlorophenoxy)ethyl]-1-{[4-(pyrimidin-2-yl)phenyl]methyl}pyrazole-4-carboxamide]"
0,> 40,847,"Nc1nn(Cc2ccc(N3CCCC3)nc2)cc1C(=O)NCCOc1cccc(Cl)c1 [Example 49, 3-amino-N-[2-(3-chlorophenoxy)ethyl]-1-{[6-(pyrrolidin-1-yl)pyridin-3-yl]methyl}pyrazole-4-carboxamide]"
0,> 40,> 10000,"Nc1nn(Cc2nc(Cc3ccccc3)no2)cc1C(=O)NCCOc1cccc(Cl)c1 [Example 90, 3-amino-1-[(3-benzyl-1,2,4-oxadiazol-5-yl)methyl]-N-[2-(3-chlorophenoxy)ethyl]pyrazole-4-carboxamide]"
23,> 40,42.1,"Nc1nn(Cc2ccc(Cn3ccccc3=O)cc2)cc1C(=O)N[C@H]1CC(=O)N(c2cccc(Cl)c2)C1 [Example 111, 3-amino-N-[(3S)-1-(3-chlorophenyl)-5-oxopyrrolidin-3-yl]-1-({4-[(2-oxopyridin-1-yl)methyl]phenyl}methyl)pyrazole-4-carboxamide]"
3,> 40,731,"CC(C)C(=O)N(C)Cc1ccc(Cn2cc(C(=O)NCCOc3cccc(Cl)c3)c(N)n2)cc1 [Example 84, 3-amino-N-[2-(3-chlorophenoxy)ethyl]-1-({4-[(N,2-dimethylpropanamido)methyl]phenyl}methyl)pyrazole-4-carboxamide]"
0,> 10,1890,"COCc1nn(Cc2ccc(Cn3ccccc3=O)cc2)cc1C(=O)NCCOc1ccccc1Cl [Example 6, N-[2-(2-chlorophenoxy)ethyl]-3-(methoxymethyl)-1-({4-[(2-oxopyridin-1-yl)methyl]phenyl}methyl)pyrazole-4-carboxamide]"
0,> 40,298,"CN(C)C(=O)N(C)Cc1ccc(Cn2cc(C(=O)NCCOc3cccc(Cl)c3)c(N)n2)cc1 [Example 83, 3-amino-N-[2-(3-chlorophenoxy)ethyl]-1-[(4-{[(dimethylcarbamoyl)(methyl)amino]methyl}phenyl)methyl]pyrazole-4-carboxamide]"
